Test results from publication PMC12583703 (Nature Communications, 2025).

Tests used:
SLC38A2 = target: T1, SLC38A2 (Homo sapiens, UniProt Q96QD8); test: thermal shift assay
T1 sequence (Q96QD8 1-506): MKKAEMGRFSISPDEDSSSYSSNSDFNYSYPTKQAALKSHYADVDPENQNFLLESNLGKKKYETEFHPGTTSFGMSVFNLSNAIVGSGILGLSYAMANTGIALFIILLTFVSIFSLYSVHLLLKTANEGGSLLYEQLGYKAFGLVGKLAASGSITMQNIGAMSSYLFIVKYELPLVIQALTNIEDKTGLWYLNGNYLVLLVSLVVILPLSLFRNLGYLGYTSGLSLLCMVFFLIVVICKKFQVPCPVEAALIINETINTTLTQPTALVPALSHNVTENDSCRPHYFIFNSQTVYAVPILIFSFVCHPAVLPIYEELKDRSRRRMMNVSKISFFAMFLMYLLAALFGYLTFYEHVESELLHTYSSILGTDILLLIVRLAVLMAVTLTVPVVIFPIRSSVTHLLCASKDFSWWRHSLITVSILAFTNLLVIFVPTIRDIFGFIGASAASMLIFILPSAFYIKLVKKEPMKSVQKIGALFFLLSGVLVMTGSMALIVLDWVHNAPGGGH

SLC1A5 = target: T2, SLC1A5 (Homo sapiens, UniProt Q15758); test: thermal shift assay
T2 sequence (Q15758 1-541): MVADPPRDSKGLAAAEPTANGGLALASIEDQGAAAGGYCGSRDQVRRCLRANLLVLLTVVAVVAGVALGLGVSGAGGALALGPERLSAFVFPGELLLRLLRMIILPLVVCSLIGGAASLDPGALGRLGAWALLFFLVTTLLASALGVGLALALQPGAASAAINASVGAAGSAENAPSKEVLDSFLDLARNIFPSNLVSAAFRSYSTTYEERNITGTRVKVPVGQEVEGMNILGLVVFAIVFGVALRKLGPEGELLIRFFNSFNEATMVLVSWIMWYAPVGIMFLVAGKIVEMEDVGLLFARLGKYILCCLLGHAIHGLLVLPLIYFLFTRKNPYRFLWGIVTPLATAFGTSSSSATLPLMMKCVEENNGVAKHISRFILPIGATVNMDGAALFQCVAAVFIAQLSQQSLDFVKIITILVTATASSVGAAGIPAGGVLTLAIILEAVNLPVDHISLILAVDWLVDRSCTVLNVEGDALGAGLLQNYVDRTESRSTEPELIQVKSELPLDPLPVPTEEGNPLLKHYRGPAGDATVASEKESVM

## Cc1cccc(COc2ccccc2CN(CC[C@H](N)C(=O)O)Cc2ccccc2OCc2cccc(C)c2)c1 [V-9302]
SLC38A2
  Tm: V-9302 significantly altered the Tm values of SLC1A5, SLC38A2, SLC6A19, and ANO1
SLC1A5
  Tm: V-9302 significantly altered the Tm values of SLC1A5, SLC38A2, SLC6A19, and ANO1
